Measured values from PubChem BioAssay (NCI).
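Exposure lasted 48 hours, with cells grown in 96-well plates and compounds tested at five concentrations. At the TGI there is no net growth.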

Experiments:
Test in all cases: inhibition of tumour cell growth, NCI panel, 48 h
NCI-H522 lung = test system: NCI-H522 lung
786-0 renal = test system: 786-0 renal
CAKI-1 renal = test system: CAKI-1 renal
U251 CNS = test system: U251 CNS
OVCAR-4 ovarian = test system: OVCAR-4 ovarian
SW-620 colon = test system: SW-620 colon
SK-OV-3 ovarian = test system: SK-OV-3 ovarian
UACC-257 melanoma = test system: UACC-257 melanoma
MOLT-4 leukemia = test system: MOLT-4 leukemia
COLO 205 colon = test system: COLO 205 colon
UACC-62 melanoma = test system: UACC-62 melanoma
A498 renal = test system: A498 renal
NCI-H23 lung = test system: NCI-H23 lung
SK-MEL-2 melanoma = test system: SK-MEL-2 melanoma
NCI-H460 lung = test system: NCI-H460 lung
KM20L2 colon = test system: KM20L2 colon
DLD-1 colon = test system: DLD-1 colon
HOP-62 NSCLC = test system: HOP-62 NSCLC
LXFL 529 NSCLC = test system: LXFL 529 NSCLC
SR leukemia = test system: SR leukemia
SNB-19 CNS = test system: SNB-19 CNS
M14 melanoma = test system: M14 melanoma
SNB-75 CNS = test system: SNB-75 CNS
MALME-3M melanoma = test system: MALME-3M melanoma
HCC-2998 colon = test system: HCC-2998 colon
SN12C renal = test system: SN12C renal
K-562 leukemia = test system: K-562 leukemia
TK-10 renal = test system: TK-10 renal
RPMI-8226 leukemia = test system: RPMI-8226 leukemia
ACHN renal = test system: ACHN renal
XF 498 CNS = test system: XF 498 CNS
SK-MEL-28 melanoma = test system: SK-MEL-28 melanoma
HT29 colon = test system: HT29 colon
HOP-92 NSCLC = test system: HOP-92 NSCLC
OVCAR-5 ovarian = test system: OVCAR-5 ovarian
NCI-H226 lung = test system: NCI-H226 lung
OVCAR-8 ovarian = test system: OVCAR-8 ovarian
UO-31 renal = test system: UO-31 renal
EKVX NSCLC = test system: EKVX NSCLC
SF-295 CNS = test system: SF-295 CNS
HL-60(TB) leukemia = test system: HL-60(TB) leukemia
CCRF-CEM leukemia = test system: CCRF-CEM leukemia
A549 NSCLC = test system: A549 NSCLC
SF-268 CNS = test system: SF-268 CNS
SNB-78 CNS = test system: SNB-78 CNS
OVCAR-3 ovarian = test system: OVCAR-3 ovarian
KM12 colon = test system: KM12 colon
M19-MEL melanoma = test system: M19-MEL melanoma
SK-MEL-5 melanoma = test system: SK-MEL-5 melanoma
LOX IMVI melanoma = test system: LOX IMVI melanoma
DMS 114 small cell lung = test system: DMS 114 small cell lung
IGROV1 ovarian = test system: IGROV1 ovarian
HCT-15 colon = test system: HCT-15 colon
DMS 273 small cell lung = test system: DMS 273 small cell lung
HOP-18 NSCLC = test system: HOP-18 NSCLC
HCT-116 colon = test system: HCT-116 colon
RXF 393 renal = test system: RXF 393 renal
SF-539 CNS = test system: SF-539 CNS

SMILES: N#CC(c1ccc(Cl)cc1)c1cccc(C(C#N)c2ccc(Cl)cc2)n1 (stereo unspecified)
- TGI (NCI-H522 lung): > 100 µM
- TGI (786-0 renal): > 100 µM
- TGI (CAKI-1 renal): > 100 µM
- TGI (U251 CNS): > 100 µM
- TGI (OVCAR-4 ovarian): > 100 µM
- TGI (SW-620 colon): > 100 µM
- TGI (SK-OV-3 ovarian): > 100 µM
- TGI (UACC-257 melanoma): > 100 µM
- TGI (MOLT-4 leukemia): > 100 µM
- TGI (COLO 205 colon): 43 µM
- TGI (UACC-62 melanoma): > 100 µM
- TGI (A498 renal): 10.9 µM
- TGI (NCI-H23 lung): 57 µM
- TGI (SK-MEL-2 melanoma): 83.2 µM
- TGI (NCI-H460 lung): > 100 µM
- TGI (KM20L2 colon): > 100 µM
- TGI (DLD-1 colon): > 100 µM
- TGI (HOP-62 NSCLC): > 100 µM
- TGI (LXFL 529 NSCLC): > 100 µM
- TGI (SR leukemia): > 100 µM
- TGI (SNB-19 CNS): > 100 µM
- TGI (M14 melanoma): > 100 µM
- TGI (SNB-75 CNS): 79.4 µM
- TGI (MALME-3M melanoma): > 100 µM
- TGI (HCC-2998 colon): > 100 µM
- TGI (SN12C renal): > 100 µM
- TGI (K-562 leukemia): > 100 µM
- TGI (TK-10 renal): 69.9 µM
- TGI (RPMI-8226 leukemia): > 100 µM
- TGI (ACHN renal): > 100 µM
- TGI (XF 498 CNS): 26.2 µM
- TGI (SK-MEL-28 melanoma): > 100 µM
- TGI (HT29 colon): > 100 µM
- TGI (HOP-92 NSCLC): 60.6 µM
- TGI (OVCAR-5 ovarian): > 100 µM
- TGI (NCI-H226 lung): > 100 µM
- TGI (OVCAR-8 ovarian): > 100 µM
- TGI (UO-31 renal): 42.3 µM
- TGI (EKVX NSCLC): > 100 µM
- TGI (SF-295 CNS): > 100 µM
- TGI (HL-60(TB) leukemia): > 100 µM
- TGI (CCRF-CEM leukemia): > 100 µM
- TGI (A549 NSCLC): > 100 µM
- TGI (SF-268 CNS): > 100 µM
- TGI (SNB-78 CNS): > 100 µM
- TGI (OVCAR-3 ovarian): > 100 µM
- TGI (KM12 colon): > 100 µM
- TGI (M19-MEL melanoma): > 100 µM

SMILES: CC(=O)Nc1ccc(-c2nnc(SCC(=O)Nc3ccc([N+](=O)[O-])cc3)o2)cc1
- TGI (NCI-H522 lung): 20.7 µM
- TGI (786-0 renal): 23.7 µM
- TGI (CAKI-1 renal): 27.5 µM
- TGI (U251 CNS): 28 µM
- TGI (OVCAR-4 ovarian): 26.3 µM
- TGI (SW-620 colon): 29.7 µM
- TGI (SK-OV-3 ovarian): 35.9 µM
- TGI (UACC-257 melanoma): 24.7 µM
- TGI (MOLT-4 leukemia): > 100 µM
- TGI (COLO 205 colon): 27.3 µM
- TGI (UACC-62 melanoma): 21.5 µM
- TGI (NCI-H23 lung): 25 µM
- TGI (SK-MEL-5 melanoma): 25.9 µM
- TGI (SK-MEL-2 melanoma): 33.3 µM
- TGI (NCI-H460 lung): 29.1 µM
- TGI (KM20L2 colon): 28.4 µM
- TGI (DLD-1 colon): 26.4 µM
- TGI (LOX IMVI melanoma): 18.1 µM
- TGI (HOP-62 NSCLC): 53.4 µM
- TGI (LXFL 529 NSCLC): 20.4 µM
- TGI (DMS 114 small cell lung): 14.6 µM
- TGI (SR leukemia): > 100 µM
- TGI (IGROV1 ovarian): 23.4 µM
- TGI (M14 melanoma): 26.9 µM
- TGI (SNB-75 CNS): 27.6 µM
- TGI (MALME-3M melanoma): 27 µM
- TGI (HCT-15 colon): 26 µM
- TGI (DMS 273 small cell lung): 22.6 µM
- TGI (SN12C renal): 29.8 µM
- TGI (HOP-18 NSCLC): 29.9 µM
- TGI (K-562 leukemia): > 100 µM
- TGI (TK-10 renal): 27.9 µM
- TGI (RPMI-8226 leukemia): > 100 µM
- TGI (ACHN renal): 28.7 µM
- TGI (HCT-116 colon): 25 µM
- TGI (SK-MEL-28 melanoma): 27.7 µM
- TGI (HT29 colon): 27.3 µM
- TGI (HOP-92 NSCLC): 37.7 µM
- TGI (OVCAR-5 ovarian): 36 µM
- TGI (NCI-H226 lung): 29.5 µM
- TGI (OVCAR-8 ovarian): 29.9 µM
- TGI (UO-31 renal): 34.6 µM
- TGI (SF-295 CNS): 27.4 µM
- TGI (RXF 393 renal): 27.9 µM
- TGI (HL-60(TB) leukemia): > 100 µM
- TGI (SF-539 CNS): 39.2 µM
- TGI (CCRF-CEM leukemia): > 100 µM
- TGI (A549 NSCLC): 37 µM
- TGI (SF-268 CNS): 27.7 µM
- TGI (SNB-78 CNS): 34.3 µM
- TGI (OVCAR-3 ovarian): 28.1 µM
- TGI (KM12 colon): 27.7 µM
- TGI (M19-MEL melanoma): 26.3 µM
